Test results from ChEMBL document CHEMBL3885881, “DrugMatrix”.

Species on record: Rattus norvegicus
Test: DrugMatrix - Regimen: Daily Repeat
Assay type: toxicity, organism-based, Sprague-Dawley
Design: regimen Daily Repeat, gender Male, age 6-8 weeks
Settings: in vivo, po, route oral GAVAGE, vehicle .5 % CMC; for BASOPHIL / EOSINOPHIL / ERYTHROCYTE COUNT / HEMATOCRIT / HEMOGLOBIN / LEUKOCYTE COUNT / LYMPHOCYTE / MEAN CORPUSCULAR HEMOGLOBIN / MEAN CORPUSCULAR HEMOGLOBIN CONCENTRATION / MEAN CORPUSCULAR VOLUME / MONOCYTE / NEUTROPHIL / PLATELET COUNT: tissue Blood; for ALANINE AMINOTRANSFERASE / ALBUMIN / ALKALINE PHOSPHATASE / ASPARTATE AMINOTRANSFERASE / BLOOD UREA NITROGEN / CHLORIDE / CHOLESTEROL / CREATINE PHOSPHOKINASE / CREATININE / GLUCOSE / PHOSPHORUS / POTASSIUM / SODIUM / TOTAL BILIRUBIN / TOTAL PROTEIN: tissue Plasma
[1] = 0 mg/kg, 72 h, dose level Control, time 3 day
[2] = 0 mg/kg, 120 h, dose level Control, time 5 day
[3] = 5 mg/kg, 72 h, dose level Low, time 3 day
[4] = 5 mg/kg, 120 h, dose level Low, time 5 day

In the case of CN1C(=O)CN=C(c2ccccc2)c2cc([N+](=O)[O-])ccc21 [NIMETAZEPAM], the BASOPHIL [1] is reported as 1.52%, the EOSINOPHIL [1] is reported as 0.98% and the “ERYTHROCYTE COUNT” value [1] is reported as 6.96 x10E6/uL. The HEMATOCRIT [1] was 44.65%, the HEMOGLOBIN [1] was 13.62 G/DL and the “LEUKOCYTE COUNT” value [1] was 9.83 x10E3/uL. For the same compound, the LYMPHOCYTE [1] was 76.48%, the “MEAN CORPUSCULAR HEMOGLOBIN” value [1] was 19.57 pg and the “MEAN CORPUSCULAR HEMOGLOBIN CONCENTRATION” value [1] was 30.47 G/DL. For the same compound, the “MEAN CORPUSCULAR VOLUME” value [1] was 64.22 fL, the MONOCYTE [1] was 2.13% and the NEUTROPHIL [1] was 18.6%. For the same compound, the “PLATELET COUNT” value [1] was 1217.17 x10E3/uL, the “ALANINE AMINOTRANSFERASE” value [1] was 41 u/L and the ALBUMIN [1] was 3.77 G/DL. The “ALKALINE PHOSPHATASE” value [1] was 411.83 u/L, the “ASPARTATE AMINOTRANSFERASE” value [1] was 62.83 u/L and the “BLOOD UREA NITROGEN” value [1] was 15.17 mg/dL. For the same compound, the CHLORIDE [1] was 104.33 MEQ/L, the CHOLESTEROL [1] was 71.17 mg/dL and the “CREATINE PHOSPHOKINASE” value [1] was 123.5 u/L. The CREATININE [1] was 0.55 mg/dL, the GLUCOSE [1] was 182.67 mg/dL and the PHOSPHORUS [1] was 11.23 mg/dL. For the same compound, the POTASSIUM [1] was 7.03 MEQ/L, the SODIUM [1] was 148 MEQ/L and the “TOTAL BILIRUBIN” value [1] was 0.57 mg/dL. For the same compound, the “TOTAL PROTEIN” value [1] was 6.85 G/DL, the BASOPHIL [2] was 1.35% and the EOSINOPHIL [2] was 0.43%. For the same compound, the “ERYTHROCYTE COUNT” value [2] was 6.96 x10E6/uL, the HEMATOCRIT [2] was 44.35% and the HEMOGLOBIN [2] was 13.98 G/DL. The “LEUKOCYTE COUNT” value [2] was 9.45 x10E3/uL, the LYMPHOCYTE [2] was 80.83% and the “MEAN CORPUSCULAR HEMOGLOBIN” value [2] was 20.1 pg. For the same compound, the “MEAN CORPUSCULAR HEMOGLOBIN CONCENTRATION” value [2] was 31.52 G/DL, the “MEAN CORPUSCULAR VOLUME” value [2] was 63.72 fL and the MONOCYTE [2] was 2.37%. The NEUTROPHIL [2] was 14.05%, the “PLATELET COUNT” value [2] was 1298 x10E3/uL and the “ALANINE AMINOTRANSFERASE” value [2] was 42.17 u/L. The ALBUMIN [2] was 3.77 G/DL, the “ALKALINE PHOSPHATASE” value [2] was 419 u/L and the “ASPARTATE AMINOTRANSFERASE” value [2] was 66.67 u/L. The “BLOOD UREA NITROGEN” value [2] was 16.67 mg/dL, the CHLORIDE [2] was 103.17 MEQ/L and the CHOLESTEROL [2] was 66.33 mg/dL. For the same compound, the “CREATINE PHOSPHOKINASE” value [2] was 148.33 u/L, the CREATININE [2] was 0.58 mg/dL and the GLUCOSE [2] was 196.83 mg/dL. The PHOSPHORUS [2] was 11.8 mg/dL, the POTASSIUM [2] was 6.47 MEQ/L and the SODIUM [2] was 148.33 MEQ/L. For the same compound, the “TOTAL BILIRUBIN” value [2] was 0.53 mg/dL, the “TOTAL PROTEIN” value [2] was 6.77 G/DL and the BASOPHIL [3] was 2.83%. For the same compound, the EOSINOPHIL [3] was 0.3%, the “ERYTHROCYTE COUNT” value [3] was 7.13 x10E6/uL and the HEMATOCRIT [3] was 44.5%. For the same compound, the HEMOGLOBIN [3] was 13.9 G/DL, the “LEUKOCYTE COUNT” value [3] was 11.4 x10E3/uL and the LYMPHOCYTE [3] was 76.5%. For the same compound, the “MEAN CORPUSCULAR HEMOGLOBIN” value [3] was 19.5 pg, the “MEAN CORPUSCULAR HEMOGLOBIN CONCENTRATION” value [3] was 31.2 G/DL and the “MEAN CORPUSCULAR VOLUME” value [3] was 62.43 fL. The MONOCYTE [3] was 2.87%, the NEUTROPHIL [3] was 16.73% and the “PLATELET COUNT” value [3] was 1489.33 x10E3/uL. For the same compound, the “ALANINE AMINOTRANSFERASE” value [3] was 36.67 u/L, the ALBUMIN [3] was 3.67 G/DL and the “ALKALINE PHOSPHATASE” value [3] was 291 u/L. For the same compound, the “ASPARTATE AMINOTRANSFERASE” value [3] was 57 u/L, the “BLOOD UREA NITROGEN” value [3] was 11.67 mg/dL and the CHLORIDE [3] was 102.67 MEQ/L. For the same compound, the CHOLESTEROL [3] was 68.67 mg/dL, the “CREATINE PHOSPHOKINASE” value [3] was 130.67 u/L and the CREATININE [3] was 0.5 mg/dL. It also gave a GLUCOSE [3] of 173 mg/dL, a PHOSPHORUS [3] of 11.97 mg/dL and a POTASSIUM [3] of 6.37 MEQ/L. For the same compound, the SODIUM [3] was 149.67 MEQ/L, the “TOTAL BILIRUBIN” value [3] was 0.27 mg/dL and the “TOTAL PROTEIN” value [3] was 6.6 G/DL. The BASOPHIL [4] was 0.95%, the EOSINOPHIL [4] was 2.55% and the “ERYTHROCYTE COUNT” value [4] was 7 x10E6/uL. For the same compound, the HEMATOCRIT [4] was 43.15%, the HEMOGLOBIN [4] was 13.8 G/DL and the “LEUKOCYTE COUNT” value [4] was 10.5 x10E3/uL. For the same compound, the LYMPHOCYTE [4] was 75.25%, the “MEAN CORPUSCULAR HEMOGLOBIN” value [4] was 19.7 pg and the “MEAN CORPUSCULAR HEMOGLOBIN CONCENTRATION” value [4] was 32 G/DL. The “MEAN CORPUSCULAR VOLUME” value [4] was 61.5 fL, the MONOCYTE [4] was 2.15% and the NEUTROPHIL [4] was 18.45%. For the same compound, the “PLATELET COUNT” value [4] was 1383 x10E3/uL, the “ALANINE AMINOTRANSFERASE” value [4] was 34.67 u/L and the ALBUMIN [4] was 3.57 G/DL. The “ALKALINE PHOSPHATASE” value [4] was 351 u/L, the “ASPARTATE AMINOTRANSFERASE” value [4] was 62.67 u/L and the “BLOOD UREA NITROGEN” value [4] was 11.67 mg/dL. For the same compound, the CHLORIDE [4] was 102.67 MEQ/L, the CHOLESTEROL [4] was 62.67 mg/dL and the “CREATINE PHOSPHOKINASE” value [4] was 168.67 u/L. For the same compound, the CREATININE [4] was 0.6 mg/dL, the GLUCOSE [4] was 170.33 mg/dL and the PHOSPHORUS [4] was 13 mg/dL. For the same compound, the POTASSIUM [4] was 7.1 MEQ/L, the SODIUM [4] was 147 MEQ/L and the “TOTAL BILIRUBIN” value [4] was 0.4 mg/dL. For the same compound, the “TOTAL PROTEIN” value [4] was 6.37 G/DL.
